Legend:
T47D = test: Cell proliferation assay (CellTiter-Glo), T47D; assay type: cell-based; conditions: Homo sapiens, 72 h exposure, mean ± SD of two experiments
Method: (§1) Given the desirable enzyme activity profile, these compounds were further assayed for their antiproliferative activities against five independent human tumour cell line collections harbouring PIK3CA mutation, including human ovarian cancer cell line SKOV-3, human breast cancer T47D and MCF-7, human lung cancer H1975 and H460. […] In general, the cellular activity of tested derivatives corrected with their effects on kinase activity.
(§2) All target compounds were evaluated for antiproliferative potency against SKOV-3, T47D,NCI-H1975, NCI-H460,and MCF-7 tumour cell lines using a CellTiter-Glo® Luminescent Cell Viability Assay. The human tumour cell lines used were obtained from the ATCC or Shanghai ZhongQiaoXinZhou Biotech. All the mediums and FBS were Gibco. T47D, H1975 and NCI-H460 tumour cells were cultured in RPMI1640 medium supplemented with 10% FBS. SKOV-3 was cultured in McCoy’s 5 A medium supplemented with 10%FBS. The day before treatment with compounds, cells were seeded at a density of 2000 or 5000 in each well of a 96-well plate. The tumour cells were then treated with 3-fold serial diluted compound or DMSO control in the incubator at 37 °C and 5% CO2 for 3 days, prior to the addition of CellTiter-Glo reagents (Promega) and reading of luminescence using a PerkinElmer Envision plate reader. Data were analysed using GraphPad Prism 7.0.

MCF-7 = test: Cell proliferation assay (CellTiter-Glo), MCF-7; assay type: cell-based; conditions: Homo sapiens, MCF7; 72 h exposure; mean ± SD of two experiments
Method: as §1, §2

NCI-H1975 = test: Cell proliferation assay (CellTiter-Glo), NCI-H1975; assay type: cell-based; conditions: Homo sapiens, 72 h exposure, mean ± SD of two experiments
Method: as §1, §2

NCI-H460 = test: Cell proliferation assay (CellTiter-Glo), NCI-H460; assay type: cell-based; conditions: Homo sapiens, 72 h exposure, mean ± SD of two experiments
Method: as §1, §2

SKOV-3 = test: Cell proliferation assay (CellTiter-Glo), SKOV-3; assay type: cell-based; conditions: Homo sapiens, SK-OV-3; 72 h exposure; mean ± SD of two experiments
Method: as §1, §2

PI3Kα = target: T1, PI3Kα (Homo sapiens, UniProt P42336); test: In vitro PI3Kα enzymatic assay (ADP-Glo / Kinase-Glo, ATP 25 μM); assay type: biochemical; conditions: ATP 25 μM; for IC50: mean ± SD of two experiments; for inhibition at 10 µM: PI3Kα, compound 10 μM, mean ± SD of three determinations, read-out: % Inhibition at 10 μM
T1 construct: purchased Invitrogen
Method: To screen the inhibitory activity of the target compounds against PI3Kα, the Kinase-Glo™ assay with ATP at 25 μM was utilised with PIK-75 as positive control. We chose to explore the SARs at three positions on the Imidazo[1,2-a]pyridine core. To start with, a set of 8-position modifications were prepared while keeping the morpholinyl amide substituent on 2-position fixed, since it allowed quick structure − activity profiling via coupling reactions of bromide with aryl borates or boronic acids. […] We then turned our attention back to the phenyl substituents.
Briefly, the compound, PI3K enzyme (PI3Kα from Invitrogen), the PIP2 (Life Technologies) substrate, and ATP (25 μM, Sigma) were diluted in kinase buffer to the indicated concentrations. The assay plate was covered and incubated at room temperature for 1 h. Then, the Kinase-Glo reagent (Promega) was added to the PI3Kα plate to stop the reaction, mixed briefly with centrifuge, shaken slowly on the shaker and then equilibrate for 120 min. Finally, add Kinase detection reagent to each well, shake 1 min, equilibrate for 30 min before reading on a plate reader for luminescence. The data were collected on Envision and presented in Excel. IC50 values were calculated from the inhibition curves.

T1 sequence (P42336 whole entry): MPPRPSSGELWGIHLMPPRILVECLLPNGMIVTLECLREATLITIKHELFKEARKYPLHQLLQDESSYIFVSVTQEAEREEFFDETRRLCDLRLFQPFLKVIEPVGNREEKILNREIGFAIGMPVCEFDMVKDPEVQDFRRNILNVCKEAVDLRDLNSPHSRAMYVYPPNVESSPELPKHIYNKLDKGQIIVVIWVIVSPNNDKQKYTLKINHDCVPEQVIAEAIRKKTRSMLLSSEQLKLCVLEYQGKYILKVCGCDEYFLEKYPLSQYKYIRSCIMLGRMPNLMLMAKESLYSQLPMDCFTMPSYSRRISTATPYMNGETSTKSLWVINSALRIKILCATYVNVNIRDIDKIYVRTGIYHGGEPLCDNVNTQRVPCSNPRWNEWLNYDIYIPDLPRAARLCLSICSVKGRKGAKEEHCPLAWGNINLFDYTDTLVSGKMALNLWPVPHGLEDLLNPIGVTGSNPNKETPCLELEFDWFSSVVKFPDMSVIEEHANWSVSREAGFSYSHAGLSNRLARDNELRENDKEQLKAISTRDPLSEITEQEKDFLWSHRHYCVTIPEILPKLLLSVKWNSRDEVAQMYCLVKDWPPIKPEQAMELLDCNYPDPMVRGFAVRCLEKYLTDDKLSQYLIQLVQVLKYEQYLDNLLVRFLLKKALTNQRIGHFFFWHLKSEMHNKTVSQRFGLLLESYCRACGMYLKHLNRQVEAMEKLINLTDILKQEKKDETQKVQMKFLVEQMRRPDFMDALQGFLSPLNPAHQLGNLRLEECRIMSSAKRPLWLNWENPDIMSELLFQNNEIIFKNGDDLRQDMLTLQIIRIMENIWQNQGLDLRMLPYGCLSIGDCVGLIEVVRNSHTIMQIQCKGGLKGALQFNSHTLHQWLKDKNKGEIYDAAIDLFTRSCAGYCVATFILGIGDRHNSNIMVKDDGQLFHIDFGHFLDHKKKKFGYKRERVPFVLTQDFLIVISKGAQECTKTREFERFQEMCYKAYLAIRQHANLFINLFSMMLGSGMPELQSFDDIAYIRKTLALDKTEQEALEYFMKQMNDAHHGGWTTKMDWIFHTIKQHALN
T1 sequence (P27986 whole entry partner): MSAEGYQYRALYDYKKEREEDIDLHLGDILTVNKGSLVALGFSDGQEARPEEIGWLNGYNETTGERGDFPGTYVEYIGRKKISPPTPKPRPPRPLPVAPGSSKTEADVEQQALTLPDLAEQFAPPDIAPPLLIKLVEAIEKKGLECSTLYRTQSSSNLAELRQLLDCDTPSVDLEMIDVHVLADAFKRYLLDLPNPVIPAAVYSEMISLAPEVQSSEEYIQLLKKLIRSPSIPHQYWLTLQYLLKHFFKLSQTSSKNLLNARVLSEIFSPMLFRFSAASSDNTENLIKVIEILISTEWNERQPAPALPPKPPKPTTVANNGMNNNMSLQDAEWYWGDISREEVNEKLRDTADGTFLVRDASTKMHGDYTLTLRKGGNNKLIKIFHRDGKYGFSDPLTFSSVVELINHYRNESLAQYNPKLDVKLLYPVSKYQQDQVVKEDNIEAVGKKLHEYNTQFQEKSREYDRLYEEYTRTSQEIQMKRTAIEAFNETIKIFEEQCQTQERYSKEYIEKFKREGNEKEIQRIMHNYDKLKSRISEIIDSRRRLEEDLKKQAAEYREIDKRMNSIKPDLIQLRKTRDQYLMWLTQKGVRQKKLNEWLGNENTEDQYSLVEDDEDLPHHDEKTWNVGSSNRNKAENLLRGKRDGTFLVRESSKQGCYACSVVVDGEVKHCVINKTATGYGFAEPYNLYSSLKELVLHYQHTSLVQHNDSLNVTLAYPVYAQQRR

Structure (SMILES) | IC50 (T47D) [µM] | IC50 (MCF-7) [µM] | IC50 (NCI-H1975) [µM] | IC50 (NCI-H460) [µM] | IC50 (SKOV-3) [µM] | IC50 (PI3Kα) [µM] | inhibition at 10 µM (PI3Kα) [%]
Cc1nc(NC(=O)N2CCC[C@H]2C(N)=O)sc1-c1ccnc(C(C)(C)C(F)(F)F)c1 [Alpelisib, reference compound] | 0.46 ± 0.05 | 2.2 ± 0.3 | 2.7 ± 0.2 | 8.9 ± 0.7 | 9.7 ± 0.7 |  | 
COc1ncc(-c2cc(C)cn3cc(C(=O)N4CCCC4)nc23)cc1NS(=O)(=O)c1ccc(F)cc1F [Compound 36, 2,4-Difluoro-N-(2-methoxy-5–(6-methyl-2-(pyrrolidine-1-carbonyl)Imidazo[1,2-a]pyridin-8-yl)pyridin-3-yl)benzenesulfonamide] | 15.9 ± 1.5 | 8.1 ± 0.8 | > 50 | 30.2 ± 3.1 | 35.3 ± 4.2 | 1.12 ± 0.15 | > 85
COc1ncc(-c2cc(C)cn3cc(C(=O)NCCN4CCOCC4)nc23)cc1NS(=O)(=O)c1ccc(F)cc1 [Compound 40, 8–(5-((4-Fluorophenyl)sulfonamido)-6-methoxypyridin-3-yl)-6-methyl-N-(2-morpholinoethyl)Imidazo[1,2-a]pyridine-2-carboxamide] | 12.5 ± 1.8 | 7.6 ± 0.5 | 41.4 ± 3.4 | 21.8 ± 1.9 | 25.5 ± 3.9 | 0.5 ± 0.11 | > 85

— publication PMC9858543, “Design, synthesis and evaluation of 2, 6, 8-substituted Imidazopyridine derivatives as potent PI3Kα inhibitors” (Journal of Enzyme Inhibition and Medicinal Chemistry, 2023)
